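Values below derive from 48-hour exposures of cells grown in 96-well plates, with endpoints linearly interpolated between the two concentrations bracketing the appropriate inhibition level. Here, GI50 denotes the concentration required for 50% inhibition of growth.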 Active and inactive are the calls of the source. Rule as the data show it: active = GI50 up to about 1.1 µM and inactive = higher.
Experiments:
Assay in all cases: NCI tumour cell line growth inhibition, 48 h
COLO 205 = test system: COLO 205
SW-620 = test system: SW-620
IGROV-1 = test system: IGROV-1
M19-MEL = test system: M19-MEL
KM12 = test system: KM12
LXFL 529 = test system: LXFL 529
HCT-116 = test system: HCT-116
NCI-H23 = test system: NCI-H23
HT-29 = test system: HT-29
CAKI-1 = test system: CAKI-1
SK-MEL-28 = test system: SK-MEL-28
DLD-1 = test system: DLD-1
OVCAR-5 = test system: OVCAR-5
MOLT-4 = test system: MOLT-4
SNB-75 = test system: SNB-75
NCI-H460 = test system: NCI-H460
SNB-19 = test system: SNB-19
UACC-257 = test system: UACC-257
SN12C = test system: SN12C
SF-295 = test system: SF-295
M14 = test system: M14
DMS-273 = test system: DMS-273
A549 = test system: A549
SK-OV-3 = test system: SK-OV-3
RPMI-8226 = test system: RPMI-8226
KM-20L2 = test system: KM-20L2
HOP-62 = test system: HOP-62
786-0 = test system: 786-0
OVCAR-4 = test system: OVCAR-4
SF-539 = test system: SF-539
DMS-114 = test system: DMS-114
UO-31 = test system: UO-31
HOP-92 = test system: HOP-92
SF-268 = test system: SF-268
K562 = test system: K562
NCI-H226 = test system: NCI-H226
NCI-H522 = test system: NCI-H522
EKVX = test system: EKVX
HL-60 = test system: HL-60
LOX IMVI = test system: LOX IMVI
U-251 = test system: U-251
CCRF-CEM = test system: CCRF-CEM
ACHN = test system: ACHN
TK-10 = test system: TK-10
SR = test system: SR
SK-MEL-2 = test system: SK-MEL-2
HCC 2998 = test system: HCC 2998
OVCAR-8 = test system: OVCAR-8
HCT-15 = test system: HCT-15
Malme-3M = test system: Malme-3M
RXF 393 = test system: RXF 393
OVCAR-3 = test system: OVCAR-3

For `CC(=O)OC(C)(C)C[N+](=O)[O-]`, the GI50 (COLO 205) was > 100 µM (inactive), the GI50 (SW-620) was > 100 µM (inactive) and the GI50 (IGROV-1) was > 100 µM (inactive). For the same molecule, the GI50 (M19-MEL) was > 100 µM (inactive), the GI50 (KM12) was > 100 µM (inactive) and the GI50 (LXFL 529) was > 100 µM (inactive). The GI50 (HCT-116) was > 100 µM (inactive), the GI50 (NCI-H23) was > 100 µM (inactive) and the GI50 (HT-29) was > 100 µM (inactive). For the same molecule, the GI50 (CAKI-1) was > 100 µM (inactive), the GI50 (SK-MEL-28) was > 100 µM (inactive) and the GI50 (DLD-1) was > 100 µM (inactive). For the same molecule, the GI50 (OVCAR-5) was > 100 µM (inactive), the GI50 (MOLT-4) was > 100 µM (inactive) and the GI50 (SNB-75) was > 100 µM (inactive). The GI50 (NCI-H460) was > 100 µM (inactive), the GI50 (SNB-19) was > 100 µM (inactive) and the GI50 (UACC-257) was > 100 µM (inactive). The GI50 (SN12C) was > 100 µM (inactive), the GI50 (SF-295) was > 100 µM (inactive) and the GI50 (M14) was > 100 µM (inactive). The GI50 (DMS-273) was > 100 µM (inactive), the GI50 (A549) was > 100 µM (inactive) and the GI50 (SK-OV-3) was > 100 µM (inactive). The GI50 (RPMI-8226) was > 100 µM (inactive), the GI50 (KM-20L2) was > 100 µM (inactive) and the GI50 (HOP-62) was > 100 µM (inactive). The GI50 (786-0) was > 100 µM (inactive), the GI50 (OVCAR-4) was 20 µM (inactive) and the GI50 (SF-539) was > 100 µM (inactive). The GI50 (DMS-114) was > 100 µM (inactive), the GI50 (UO-31) was > 100 µM (inactive) and the GI50 (HOP-92) was > 100 µM (inactive). The GI50 (SF-268) was > 100 µM (inactive), the GI50 (K562) was > 100 µM (inactive) and the GI50 (NCI-H226) was > 100 µM (inactive). The GI50 (NCI-H522) was 63.4 µM (inactive), the GI50 (EKVX) was > 100 µM (inactive) and the GI50 (HL-60) was 26 µM (inactive). For the same molecule, the GI50 (LOX IMVI) was > 100 µM (inactive), the GI50 (U-251) was > 100 µM (inactive) and the GI50 (CCRF-CEM) was > 100 µM (inactive). The GI50 (ACHN) was > 100 µM (inactive), the GI50 (TK-10) was > 100 µM (inactive) and the GI50 (SR) was > 100 µM (inactive). For the same molecule, the GI50 (SK-MEL-2) was > 100 µM (inactive), the GI50 (HCC 2998) was > 100 µM (inactive) and the GI50 (OVCAR-8) was > 100 µM (inactive). For the same molecule, the GI50 (HCT-15) was > 100 µM, the GI50 (Malme-3M) was > 100 µM (inactive) and the GI50 (RXF 393) was > 100 µM (inactive). For the same molecule, the GI50 (OVCAR-3) was > 100 µM (inactive).

Source: ChEMBL document CHEMBL1201862, “PubChem BioAssay data set” (2004)
